Test results published in PMC6308799, “In vitro and in vivo Inhibitory Activity of NADPH Against the AmpC BER Class C β-Lactamase” (Frontiers in Cellular and Infection Microbiology, 2018).

Assays:
AmpC EC2 [1] = target: T1, AmpC EC2 (Escherichia coli, UniProt A7TUE6); assay: nitrocefin hydrolysis initial velocity at […] ([…] inhibition range for the set); format: biochemical
CMY-10 = target: T2, CMY-10 (Klebsiella aerogenes, UniProt Q99QC1); assay: nitrocefin hydrolysis initial velocity at […] NADPH; format: biochemical
T2 construct: gene blaCMY-10

AmpC EC2 [2] = target: T1, AmpC EC2; assay: ITC (KD […]); also steady-state nitrocefin kinetics (competitive, Ki […]); format: binding
CMY-2 = target: T3, CMY-2 (Klebsiella pneumoniae, UniProt Q48434); assay: nitrocefin hydrolysis initial velocity at […] NADPH; format: biochemical
T3 construct: gene blaCMY-2

AmpC EC2 [3] = target: T1, AmpC EC2; assay: nitrocefin hydrolysis initial velocity at […] NADPH; format: biochemical

Structure (SMILES)	nitrocefin hydrolysis initial velocity at 2 mM (~15-55% inhibition range for the) (AmpC EC2 [1])	nitrocefin hydrolysis initial velocity at 2 mM NADPH (CMY-10)	Kd (AmpC EC2 [2])	nitrocefin hydrolysis initial velocity at 2 mM NADPH (CMY-2)	nitrocefin hydrolysis initial velocity at 2 mM NADPH (AmpC EC2 [3])
Cc1cc2nc3c(=O)[nH]c(=O)nc-3n(C[C@H](O)[C@H](O)[C@H](O)COP(=O)(O)OP(=O)(O)OC[C@H]3O[C@@H](n4cnc5c(N)ncnc54)[C@H](O)[C@@H]3O)c2cc1C [FAD]	all tested adenosine dinucleotides including FAD, NAD, NADP, and NADPH reduced the initial velocity of nitrocefin hydrolysis catalyzed by AmpC BER	–	–	–	–
NC(=O)C1=CN([C@@H]2O[C@H](COP(=O)(O)OP(=O)(O)OC[C@H]3O[C@@H](n4cnc5c(N)ncnc54)[C@H](OP(=O)(O)O)[C@@H]3O)[C@@H](O)[C@H]2O)C=CC1 [NADPH]	–	NADPH also reduced the initial velocity of nitrocefin hydrolysis catalyzed by other class C β-lactamases including ACC-1, AmpC EC2, CMY-2, and CMY-10	40 µM	NADPH also reduced the initial velocity of nitrocefin hydrolysis catalyzed by other class C β-lactamases including ACC-1, AmpC EC2, CMY-2, and CMY-10	NADPH also reduced the initial velocity of nitrocefin hydrolysis catalyzed by other class C β-lactamases including ACC-1, AmpC EC2, CMY-2, and CMY-10
NC(=O)c1ccc[n+]([C@@H]2O[C@H](COP(=O)([O-])OP(=O)(O)OC[C@H]3O[C@@H](n4cnc5c(N)ncnc54)[C@H](O)[C@@H]3O)[C@@H](O)[C@H]2O)c1 [NAD]	all tested adenosine dinucleotides including FAD, NAD, NADP, and NADPH reduced the initial velocity of nitrocefin hydrolysis catalyzed by AmpC BER	–	–	–	–
